Experimental findings from US10875857B2, “1-amino-triazolo(1,5-A)pyridine-substituted urea derivative and uses thereof” (Kala Pharmaceuticals, Inc., priority 2014, dated 2020) are described below.

The target of one test is T1, PDGFR-β (Mus musculus, UniProt P05622).
T1 construct: The murine embryonal fibroblast cell line NIH3T3 expresses endogenously high levels of PDGFR-β; endogenous in cells; host or cells: NIH3T3 murine embryonal fibroblast cell line
As to the kind of experiment: Cellular PDGFR-β tyrosine auto-phosphorylation assay in NIH3T3 cells after PDGF-BB stimulation (sandwich ELISA). The note with it: 90 min incubation with compound, then 3 min stimulation with 100 ng/ml PDGF-BB, phosphorylated PDGFR-β by ELISA, read-out: cellular 1050 values, PDGFR-β. It counts as cell-based, murine. How it is done: The murine embryonal fibroblast cell line NIH3T3 expresses endogenously high levels of PDGFR-β. The compound prepared in Example 2 above was tested for the ability to inhibit tyrosine auto-phosphorylation of this receptor after stimulation with platelet-derived growth factor BB (PDGF-BB). The NIH3T3 cells were plated into multi-well cell culture plates in Dulbecco's Modified Eagle Medium (DMEM) supplemented with 10% FCS. The medium was removed and then replaced with DMEM without FCS and cells serum starved overnight at 37° C. On the day of the assay the compound was 1:3 serial diluted from 10 mM stocks in 100% DMSO and then were 1:100 diluted to each well of cells in DMEM without FCS to create final solutions containing 1% DMSO and an eight point compound dose response curve starting at 10^−6 M, 10^−7 M, or 10^−8 M. The compound was added in duplicate to columns of the multi-well plate. […] Cells were lysed, and then levels of phosphorylated PDGFR-β were determined in a sandwich ELISA assay formatted in a multi-well plate using a PDGFR-β specific capture antibody and an anti-phosphotyrosine PDGFR-β detection antibody. […] IC50 values were determined by fitting the converted eight point dose response data to a four-parameter logistic equation using GRAPHPAD PRISM® 5.01 software.
For orientation: In an ELISA, binding on a coated surface is turned into a signal by an enzyme label.

The next test addresses T2, VEGFR2 (Homo sapiens, UniProt P35968).
T2 construct: The human umbilical endothelial (HUE) cell line expresses high levels of VEGFR2; endogenous in cells; host or cells: HUE (human umbilical endothelial) cell line
Description: Cellular VEGFR2 tyrosine auto-phosphorylation assay in HUE cells after VEGF-A stimulation (sandwich ELISA). It counts as cell-based. The note with it: 90 min incubation with compound, then 3 min stimulation with 100 ng/ml VEGF-A, phosphorylated VEGFR2 by ELISA, read-out: cellular 1050 values, VEGFR2. The procedure:
The human umbilical endothelial (HUE) cell line expresses high levels of VEGFR2. The compound prepared in Example 2 above, 1-(4-(3-amino-[1,2,3]triazolo[1,5-a]pyridin-4-yl)phenyl)-3-(3-chlorophenyl)urea, was tested for the ability to inhibit tyrosine auto-phosphorylation of this receptor after stimulation with vascular endothelial growth factor A (VEGF-A). HUE cells were plated into multi-well cell culture plates in endothelial cell growth medium (ECGM) supplemented with 10% fetal calf serum (FCS). After starvation in endothelial cell basal medium (ECBM) supplemented with […] overnight cells were incubated with compounds in serum-free ECBM. […] Cells were incubated for 90 min at 37° C. in ECBM with the serial diluted compound and then stimulated for 3 min with 100 ng/ml VEGF-A. Cells were lysed, and then levels of phosphorylated VEGFR2 were determined in a sandwich ELISA assay formatted in a multi-well plate using a VEGFR2 specific capture antibody and an anti-phosphotyrosine VEGFR2 detection antibody. […] IC50 values were determined by fitting the converted eight point dose response data to a four-parameter logistic equation using GRAPHPAD PRISM® 5.01 software.

T1 sequence (P05622 32-1098): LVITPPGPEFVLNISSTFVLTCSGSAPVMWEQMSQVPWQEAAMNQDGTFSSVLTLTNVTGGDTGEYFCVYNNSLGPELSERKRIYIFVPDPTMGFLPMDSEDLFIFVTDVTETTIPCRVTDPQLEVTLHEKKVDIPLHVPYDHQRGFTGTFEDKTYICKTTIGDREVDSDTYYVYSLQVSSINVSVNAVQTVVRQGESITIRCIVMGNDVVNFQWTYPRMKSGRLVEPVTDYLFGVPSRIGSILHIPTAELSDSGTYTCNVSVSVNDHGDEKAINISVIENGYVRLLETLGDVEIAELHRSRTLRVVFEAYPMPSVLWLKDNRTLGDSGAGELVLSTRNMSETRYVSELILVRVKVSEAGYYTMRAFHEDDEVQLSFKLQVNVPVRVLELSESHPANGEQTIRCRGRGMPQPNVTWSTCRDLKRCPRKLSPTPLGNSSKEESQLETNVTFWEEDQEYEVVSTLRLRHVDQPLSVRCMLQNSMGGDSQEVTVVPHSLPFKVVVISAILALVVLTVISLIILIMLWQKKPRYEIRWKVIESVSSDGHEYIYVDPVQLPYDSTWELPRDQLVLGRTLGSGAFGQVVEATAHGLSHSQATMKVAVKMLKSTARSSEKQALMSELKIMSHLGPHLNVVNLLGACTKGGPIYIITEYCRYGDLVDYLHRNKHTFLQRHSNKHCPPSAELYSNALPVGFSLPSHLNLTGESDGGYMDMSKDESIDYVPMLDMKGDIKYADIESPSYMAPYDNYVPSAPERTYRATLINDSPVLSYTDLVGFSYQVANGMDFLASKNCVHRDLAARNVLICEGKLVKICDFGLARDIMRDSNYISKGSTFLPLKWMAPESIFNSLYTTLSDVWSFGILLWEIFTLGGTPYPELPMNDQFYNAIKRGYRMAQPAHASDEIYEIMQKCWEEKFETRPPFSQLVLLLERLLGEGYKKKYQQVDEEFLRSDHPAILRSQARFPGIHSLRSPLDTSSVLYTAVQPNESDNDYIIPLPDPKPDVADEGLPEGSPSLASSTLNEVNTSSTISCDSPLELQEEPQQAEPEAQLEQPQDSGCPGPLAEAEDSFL
T2 sequence (P35968 20-1356): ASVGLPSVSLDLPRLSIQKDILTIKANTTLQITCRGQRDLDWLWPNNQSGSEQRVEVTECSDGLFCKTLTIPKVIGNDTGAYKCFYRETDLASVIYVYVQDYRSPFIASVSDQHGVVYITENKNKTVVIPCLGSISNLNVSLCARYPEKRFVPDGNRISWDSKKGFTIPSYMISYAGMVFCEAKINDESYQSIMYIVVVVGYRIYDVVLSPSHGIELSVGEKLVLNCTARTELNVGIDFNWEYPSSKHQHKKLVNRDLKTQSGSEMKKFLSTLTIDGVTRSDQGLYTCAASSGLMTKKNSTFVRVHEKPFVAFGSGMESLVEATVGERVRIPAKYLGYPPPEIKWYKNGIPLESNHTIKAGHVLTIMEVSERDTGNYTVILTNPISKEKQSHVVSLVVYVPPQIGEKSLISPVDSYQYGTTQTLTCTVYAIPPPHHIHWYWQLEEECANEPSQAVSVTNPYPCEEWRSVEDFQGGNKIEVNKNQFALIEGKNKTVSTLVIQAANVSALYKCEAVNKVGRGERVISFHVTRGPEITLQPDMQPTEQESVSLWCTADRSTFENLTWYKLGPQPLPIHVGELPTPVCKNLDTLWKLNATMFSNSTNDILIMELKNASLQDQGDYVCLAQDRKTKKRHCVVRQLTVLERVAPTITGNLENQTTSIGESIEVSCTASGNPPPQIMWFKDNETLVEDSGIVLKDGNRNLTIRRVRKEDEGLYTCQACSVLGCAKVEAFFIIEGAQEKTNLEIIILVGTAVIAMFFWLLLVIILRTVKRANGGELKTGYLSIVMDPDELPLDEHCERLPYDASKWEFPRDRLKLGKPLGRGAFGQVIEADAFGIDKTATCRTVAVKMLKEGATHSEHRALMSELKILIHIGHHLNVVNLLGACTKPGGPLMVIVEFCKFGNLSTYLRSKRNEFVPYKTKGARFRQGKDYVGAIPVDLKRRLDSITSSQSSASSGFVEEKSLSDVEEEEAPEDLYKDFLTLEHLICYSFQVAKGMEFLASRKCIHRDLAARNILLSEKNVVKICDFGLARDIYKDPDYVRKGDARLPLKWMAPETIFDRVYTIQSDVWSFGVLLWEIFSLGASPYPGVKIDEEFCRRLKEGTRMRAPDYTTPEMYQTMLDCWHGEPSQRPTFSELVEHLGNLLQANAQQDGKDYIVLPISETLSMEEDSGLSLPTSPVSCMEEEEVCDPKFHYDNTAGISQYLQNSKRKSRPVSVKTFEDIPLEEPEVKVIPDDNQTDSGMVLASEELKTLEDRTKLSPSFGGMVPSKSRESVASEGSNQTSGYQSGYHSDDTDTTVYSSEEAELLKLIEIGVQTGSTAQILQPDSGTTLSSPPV

As to `Nc1nnn2cccc(-c3ccc(NC(=O)Nc4cccc(Cl)c4)cc3)c12` [compound of Formula (I), 1-(4-(3-amino-[1,2,3]triazolo[1,5-a]pyridin-4-yl)phenyl)-3-(3-chlorophenyl)urea], the IC50 came to 3.2 nM at PDGFR-β and 0.37 nM at VEGFR2.
